# Measured values as given in patent US20190031618A1, “BENZIMIDAZOLE DERIVATIVES USEFUL AS CB-1 INVERSE AGONISTS” (Janssen Pharmaceutica NV, priority 2015, published 2019).
# Read-outs that look alike come from different tables or passages of the source.
# Assays:
# Format in all cases: in vivo
# DIO mice [1] = assay: Chronic DIO Mouse: insulin tolerance test; conditions: for Insulin Tolerance Test Blood Glucose AUC (Std Err): day 21
# Procedure: (§1) DIO mice received vehicle, test compound (@ 1, 3, 10, and 30 mg/kg) daily for 26 days. At the end of the experiment, the mice were euthanized and blood and tissues were collected.
# (§2) An insulin tolerance test (0.7 U/kg Humulin, ip) was performed on day 21 after a 4 hour food removal. Blood glucose was measured at 0, 15, 30, 60 and 120 minutes after insulin. After an overnight fast, an oral glucose tolerance test (2 g/kg glucose) was performed on day 23. Blood glucose was measured at 0, 30, 60 and 120 minutes after glucose challenge.
# (§3) Blood glucose was measured from the tail vein with a Lifescan glucometer. Plasma insulin was measured with an ELISA or HTRF kit (Cisbio). Plasma parameters were measured with an Olympus clinical chemistry analyzer.
# [2] = Chronic DIO Mouse: plasma and brain concentrations; conditions: oral, DIO mice, 2 Hours Post Dose
# Procedure: as §1
# DIO mice [3] = assay: Chronic DIO Mouse: oral glucose tolerance test; conditions: for Oral Glucose Tolerance Test Blood Glucose AUC: day 23
# Procedure: as §1, §2, §3
# DIO mice [4] = assay: Chronic DIO Mouse: food intake, body weight, plasma insulin; conditions: DIO mice
# Procedure: Male 14-20-week old diet-induced obese mice are ordered from Taconic. Mice were started on a 60% fat diet (D12492, Research Diets, New Brunswick, N.J.) at 6 weeks of age. Mice are single-housed.
# as §1
# Body weight and food weight (food intake) were monitored daily for days 1-5 and twice weekly thereafter.
# as §3
smiles,measurement,setting,value
O=C(O)c1cccc(CN2CCC(n3c(C4CC4)nc4ccc(C(c5ccc(Cl)cc5)c5ccc(Cl)cc5)cc43)CC2)c1 [Example 148],Insulin Tolerance Test Blood Glucose AUC (Std Err),DIO mice [1]; 1 mg/kg daily,19606.5 mg·min/dL
same,Insulin Tolerance Test Mean Blood Glucose (Std Err),"DIO mice [1]; 1 mg/kg daily, day 21, 0 min after insulin",194.8 mg/dL
same,Insulin Tolerance Test Mean Blood Glucose (Std Err),"DIO mice [1]; 1 mg/kg daily, day 21, 15 min after insulin",193.3 mg/dL
same,Insulin Tolerance Test Mean Blood Glucose (Std Err),"DIO mice [1]; 1 mg/kg daily, day 21, 30 min after insulin",155 mg/dL
same,Insulin Tolerance Test Mean Blood Glucose (Std Err),"DIO mice [1]; 1 mg/kg daily, day 21, 60 min after insulin",161.3 mg/dL
same,Insulin Tolerance Test Mean Blood Glucose (Std Err),"DIO mice [1]; 1 mg/kg daily, day 21, 120 min after insulin",150 mg/dL
same,Insulin Tolerance Test Blood Glucose AUC (Std Err),DIO mice [1]; 3 mg/kg daily,17812.5 (1054.85) mg/dL * min
same,Insulin Tolerance Test Mean Blood Glucose (Std Err),"DIO mice [1]; 3 mg/kg daily, day 21, 0 min after insulin",185.9 (6.57) mg/dL
same,Insulin Tolerance Test Mean Blood Glucose (Std Err),"DIO mice [1]; 3 mg/kg daily, day 21, 15 min after insulin",160.9 (7.24) mg/dL
same,Insulin Tolerance Test Mean Blood Glucose (Std Err),"DIO mice [1]; 3 mg/kg daily, day 21, 30 min after insulin",138.9 (9.10) mg/dL
same,Insulin Tolerance Test Mean Blood Glucose (Std Err),"DIO mice [1]; 3 mg/kg daily, day 21, 60 min after insulin",150.9 (11.66) mg/dL
same,Insulin Tolerance Test Mean Blood Glucose (Std Err),"DIO mice [1]; 3 mg/kg daily, day 21, 120 min after insulin",136.3 (9.51) mg/dL
same,Insulin Tolerance Test Blood Glucose AUC (Std Err),DIO mice [1]; 10 mg/kg daily,17930.25 (556.44) mg/dL * min
same,Insulin Tolerance Test Mean Blood Glucose (Std Err),"DIO mice [1]; 10 mg/kg daily, day 21, 0 min after insulin",168.8 (7.13) mg/dL
same,Insulin Tolerance Test Mean Blood Glucose (Std Err),"DIO mice [1]; 10 mg/kg daily, day 21, 15 min after insulin",172.6 (9.66) mg/dL
same,Insulin Tolerance Test Mean Blood Glucose (Std Err),"DIO mice [1]; 10 mg/kg daily, day 21, 30 min after insulin",139.1 (7.03) mg/dL
same,Insulin Tolerance Test Mean Blood Glucose (Std Err),"DIO mice [1]; 10 mg/kg daily, day 21, 60 min after insulin",146.7 (5.80) mg/dL
same,Insulin Tolerance Test Mean Blood Glucose (Std Err),"DIO mice [1]; 10 mg/kg daily, day 21, 120 min after insulin",144.8 (5.86) mg/dL
same,Insulin Tolerance Test Blood Glucose AUC (Std Err),DIO mice [1]; 30 mg/kg daily,14575.5 mg·min/dL
same,Insulin Tolerance Test Mean Blood Glucose (Std Err),"DIO mice [1]; 30 mg/kg daily, day 21, 0 min after insulin",143 mg/dL
same,Insulin Tolerance Test Mean Blood Glucose (Std Err),"DIO mice [1]; 30 mg/kg daily, day 21, 15 min after insulin",147.6 mg/dL
same,Insulin Tolerance Test Mean Blood Glucose (Std Err),"DIO mice [1]; 30 mg/kg daily, day 21, 30 min after insulin",119.8 mg/dL
same,Insulin Tolerance Test Mean Blood Glucose (Std Err),"DIO mice [1]; 30 mg/kg daily, day 21, 60 min after insulin",121.3 mg/dL
same,Insulin Tolerance Test Mean Blood Glucose (Std Err),"DIO mice [1]; 30 mg/kg daily, day 21, 120 min after insulin",104.5 mg/dL
same,concentration at 2 h,"[2]; brain, 1 mg/kg daily, Day 25, read-out: Brain Concentration (Std Dev)",18.2 ng/g
same,concentration at 2 h,"[2]; brain, 3 mg/kg daily, Day 25, read-out: Brain Concentration (Std Dev)",29.9 ng/g
same,concentration at 2 h,"[2]; brain, 10 mg/kg daily, Day 25, read-out: Brain Concentration (Std Dev)",42 ng/g
same,concentration at 2 h,"[2]; brain, 30 mg/kg daily, Day 25, read-out: Brain Concentration (Std Dev)",73.5 ng/g
same,concentration at 2 h,"[2]; plasma, 1 mg/kg daily, Day 25, read-out: Plasma Concentration (Std Dev)",288 ng/mL
same,concentration at 2 h,"[2]; plasma, 3 mg/kg daily, Day 25, read-out: Plasma Concentration (Std Dev)",1350 ng/mL
same,concentration at 2 h,"[2]; plasma, 10 mg/kg daily, Day 25, read-out: Plasma Concentration (Std Dev)",3430 ng/mL
same,concentration at 2 h,"[2]; plasma, 30 mg/kg daily, Day 25, read-out: Plasma Concentration (Std Dev)",15200 ng/mL
same,Oral Glucose Tolerance Test Blood Glucose AUC,DIO mice [3]; 1 mg/kg daily,19362 mg·min/dL
same,Oral Glucose Tolerance Test Mean Blood Glucose,"DIO mice [3]; 1 mg/kg daily, day 23, 0 min after glucose",139.90 mg/dL
same,Oral Glucose Tolerance Test Mean Blood Glucose,"DIO mice [3]; 1 mg/kg daily, day 23, 30 min after glucose",179.2 mg/dL
same,Oral Glucose Tolerance Test Mean Blood Glucose,"DIO mice [3]; 1 mg/kg daily, day 23, 60 min after glucose",168.5 mg/dL
same,Oral Glucose Tolerance Test Mean Blood Glucose,"DIO mice [3]; 1 mg/kg daily, day 23, 120 min after glucose",143.5 mg/dL
same,Oral Glucose Tolerance Test Blood Glucose AUC,DIO mice [3]; 3 mg/kg daily,19705 mg·min/dL
same,Oral Glucose Tolerance Test Mean Blood Glucose,"DIO mice [3]; 3 mg/kg daily, day 23, 0 min after glucose",154.89 mg/dL
same,Oral Glucose Tolerance Test Mean Blood Glucose,"DIO mice [3]; 3 mg/kg daily, day 23, 30 min after glucose",153.11 mg/dL
same,Oral Glucose Tolerance Test Mean Blood Glucose,"DIO mice [3]; 3 mg/kg daily, day 23, 60 min after glucose",183.89 mg/dL
same,Oral Glucose Tolerance Test Mean Blood Glucose,"DIO mice [3]; 3 mg/kg daily, day 23, 120 min after glucose",150.44 mg/dL
same,Oral Glucose Tolerance Test Blood Glucose AUC,DIO mice [3]; 10 mg/kg daily,19740 mg·min/dL
same,Oral Glucose Tolerance Test Mean Blood Glucose,"DIO mice [3]; 10 mg/kg daily, day 23, 0 min after glucose",141.60 mg/dL
same,Oral Glucose Tolerance Test Mean Blood Glucose,"DIO mice [3]; 10 mg/kg daily, day 23, 30 min after glucose",190.1 mg/dL
same,Oral Glucose Tolerance Test Mean Blood Glucose,"DIO mice [3]; 10 mg/kg daily, day 23, 60 min after glucose",176.2 mg/dL
same,Oral Glucose Tolerance Test Mean Blood Glucose,"DIO mice [3]; 10 mg/kg daily, day 23, 120 min after glucose",132.8 mg/dL
same,Oral Glucose Tolerance Test Blood Glucose AUC,DIO mice [3]; 30 mg/kg daily,19276.5 mg·min/dL
same,Oral Glucose Tolerance Test Mean Blood Glucose,"DIO mice [3]; 30 mg/kg daily, day 23, 0 min after glucose",125.30 mg/dL
same,Oral Glucose Tolerance Test Mean Blood Glucose,"DIO mice [3]; 30 mg/kg daily, day 23, 30 min after glucose",184.5 mg/dL
same,Oral Glucose Tolerance Test Mean Blood Glucose,"DIO mice [3]; 30 mg/kg daily, day 23, 60 min after glucose",179 mg/dL
same,Oral Glucose Tolerance Test Mean Blood Glucose,"DIO mice [3]; 30 mg/kg daily, day 23, 120 min after glucose",126.9 mg/dL
same,Mean Body Weight (Std Err),"DIO mice [4]; 1 mg/kg daily, Day 0",42.03 (0.80) Grams
same,Mean Body Weight (Std Err),"DIO mice [4]; 1 mg/kg daily, Day 1",42.63 (0.79) Grams
same,Mean Body Weight (Std Err),"DIO mice [4]; 1 mg/kg daily, Day 2",42.56 (0.86) Grams
same,Mean Body Weight (Std Err),"DIO mice [4]; 1 mg/kg daily, Day 3",42.46 (0.91) Grams
same,Mean Body Weight (Std Err),"DIO mice [4]; 1 mg/kg daily, Day 4",42.26 (0.87) Grams
same,Mean Body Weight (Std Err),"DIO mice [4]; 1 mg/kg daily, Day 5",42.31 (0.81) Grams
same,Mean Body Weight (Std Err),"DIO mice [4]; 1 mg/kg daily, Day 8",41.62 (0.79) Grams
same,Mean Body Weight (Std Err),"DIO mice [4]; 1 mg/kg daily, Day 11",41.91 (0.77) Grams
same,Mean Body Weight (Std Err),"DIO mice [4]; 1 mg/kg daily, Day 15",42.67 (1.02) Grams
same,Mean Body Weight (Std Err),"DIO mice [4]; 1 mg/kg daily, Day 18",40.54 (1.23) Grams
same,Mean Body Weight (Std Err),"DIO mice [4]; 1 mg/kg daily, Day 24",41.11 (1.30) Grams
same,Plasma Insulin (Std Err),"DIO mice [4]; 1 mg/kg daily, chronic study",5.92 (0.92) ng/mL
same,Mean Body Weight (Std Err),"DIO mice [4]; 3 mg/kg daily, Day 0",42.28 (0.49) Grams
same,Mean Body Weight (Std Err),"DIO mice [4]; 3 mg/kg daily, Day 1",42.94 (0.45) Grams
same,Mean Body Weight (Std Err),"DIO mice [4]; 3 mg/kg daily, Day 2",42.12 (0.43) Grams
same,Mean Body Weight (Std Err),"DIO mice [4]; 3 mg/kg daily, Day 3",41.85 (0.47) Grams
